Publication PMC12268802, “The herbicidal natural product phosphonothrixin is an inhibitor of the riboflavin biosynthetic enzyme L‐3,4‐dihydroxy‐2‐butanone‐4‐phosphate synthase” (Pest Management Science, 2025)

Legend:
ZtDHBPS = ZtDHBPS (Zymoseptoria tritici, UniProt F9X7Z9); test: DHBPS activity assay; assay type: biochemical
Protocol: (§1) DHBPS activity assays were out carried in 96‐well microtiter plates using a modification of the procedure previously described.[18] The reaction mixture contained 100 mM MES (2‐morpholinoethanesulfonic acid) buffer pH 6.5, 20 mM MgCl2, 20 mM D‐ribose‐5‐phosphate (Sigma‐Aldrich R7750), 0.02% Tween‐20, 0.2 mg BSA, 0.5 μg of spinach phosphoriboisomerase (Sigma‐Aldrich P9752) and DHBPS enzyme in a final volume of 110 μL. Assays were initiated by adding enzyme and terminated after 120 min incubation at rt by the addition of 90 μL of a solution of 3.5% α‐naphthol and 0.2% creatine in 2 N NaOH. After an additional 45 min incubation at rt the absorbance was determined at 540 nm. The pI50‐value for inhibition by phosphonothrixin (1) was determined with the XLFit Excel add‐in version 4.3.1 curve fitting program of ID Business Solutions Limited. […] Reaction velocities were fitted to the Michaelis–Menten equation with the XLFit curve fitting program.

AtDHBPS = target: T1, AtDHBPS (Arabidopsis thaliana, UniProt P47924); test: DHBPS activity assay; assay type: biochemical
T1 construct: made in house; host or cells: Escherichia coli BL21(DE3)
T1 sequence (P47924 with tags, fused parts or gaps): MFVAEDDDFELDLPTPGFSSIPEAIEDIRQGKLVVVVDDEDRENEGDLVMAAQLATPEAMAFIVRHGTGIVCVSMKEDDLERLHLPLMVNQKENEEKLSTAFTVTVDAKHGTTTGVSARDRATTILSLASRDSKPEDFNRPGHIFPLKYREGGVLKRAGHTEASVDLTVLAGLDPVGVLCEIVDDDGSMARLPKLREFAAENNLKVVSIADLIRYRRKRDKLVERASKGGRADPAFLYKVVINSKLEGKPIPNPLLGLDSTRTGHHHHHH
Protocol: as §1

Lemna gibba = Lemna gibba growth assay; assay type: in vivo; conditions: 100 μM phosphonothrixin; 7 days
Protocol: Growth experiments were performed in sterile 6‐well cell culture plates and were initiated by transferring four Lemna gibba fronds per well to 5 mL of K‐medium[22] pH 4.8 containing 1% (w/v) sucrose and a selected concentration of phosphonothrixin (1) and riboflavin determined from previous experiments. The cell culture plates were incubated for 7 days in a growth cabinet at 22 °C and a continuous photon flux density of 75 μE/m^2s.

ZtDHBPS, sequence (F9X7Z9 1-226): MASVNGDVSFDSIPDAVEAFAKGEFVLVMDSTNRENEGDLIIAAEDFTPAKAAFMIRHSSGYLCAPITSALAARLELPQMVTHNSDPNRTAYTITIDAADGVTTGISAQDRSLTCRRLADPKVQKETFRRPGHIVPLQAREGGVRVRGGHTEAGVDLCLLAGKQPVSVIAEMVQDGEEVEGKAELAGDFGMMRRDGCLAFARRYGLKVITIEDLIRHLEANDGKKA

Structure (SMILES): CC(=O)C(O)(CO)CP(=O)(O)O (stereo not drawn) [phosphonothrixin]
- IC50 (ZtDHBPS): 19 µM
- IC50 (AtDHBPS): 58 ± 11 µM
- Ki (AtDHBPS): 16.6 ± 5 µM
- type of inhibition of AtDHBPS (AtDHBPS; with respect to the substrate): competitive inhibitor
- bleaching of Lemna gibba fronds (Lemna gibba): strong bleaching of the fronds
- growth of Lemna gibba (Lemna gibba): significant growth inhibition
